Reference: patent publication US20230085307A1, “PYRIDAZINONE COMPOUND AND HERBICIDE” (NISSAN CHEMICAL CORPORATION, priority 2019, published 2023)

Key:
oval-leafed pondweed [1] = experiment: Test Example 1: herbicidal activity, application before weed generation under submerged conditions (Table 16, symbol C); assay type: in vivo, oval-leafed pondweed (Monochoria vaginalis); settings: for Herbicidal effect, C: oval-leafed pondweed: amount of applied herbicide 320 g/ha; for Herbicidal effect on C: oval-leafed pondweed (grade 0-5): 320 g/ha applied herbicide
Procedure, shortened: (§1)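 Alluvial soil was flooded to 4 cm depth, weed seeds were sown mixed and 2.5-leaf rice seedlings were transplanted. On sowing day, the compound's emulsion, diluted in water to a set dose, was applied to the water surface. Plants grew at 25–30 °C and were scored 0–5 after three weeks.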

late watergrass [2] = experiment: Test Example 1: herbicidal activity, application before weed generation under submerged conditions (Table 16, symbol A); assay type: in vivo, late watergrass (Echinochloa oryzicola); settings: for Herbicidal effect, A: late watergrass: amount of applied herbicide 320 g/ha; for Herbicidal effect on A: late watergrass (grade 0-5): 320 g/ha applied herbicide
Procedure, shortened: as §1

late watergrass [3] = experiment: Test Example 2: herbicidal activity, application during weed generation under submerged conditions (Table 17, symbol A); assay type: in vivo, late watergrass (Echinochloa oryzicola); settings: for herbicidal effect rating, A: late watergrass: AAH 320 g/ha, application during weed generation, submerged conditions
Procedure, shortened: (§2)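 3-wk visual-criteria score after one water-surface dose. Emulsion formulation, water-diluted to set rate; applied at 1–2 leaf stage; alluvial soil, 4 cm standing water; seeds co-sown; greenhouse 25–30° C.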

Japanese bulrush [4] = experiment: Test Example 1: herbicidal activity, application before weed generation under submerged conditions (Table 16, symbol B); assay type: in vivo, Japanese bulrush (Schoenoplectus juncoides); settings: for Herbicidal effect, B: Japanese bulrush: amount of applied herbicide 320 g/ha; for Herbicidal effect on B: Japanese bulrush (grade 0-5): 320 g/ha applied herbicide
Procedure, shortened: as §1

Japanese bulrush [5] = experiment: Test Example 2: herbicidal activity, application during weed generation under submerged conditions (Table 17, symbol B); assay type: in vivo, Japanese bulrush (Schoenoplectus juncoides); settings: for herbicidal effect rating, B: Japanese bulrush: AAH 320 g/ha, application during weed generation, submerged conditions
Procedure, shortened: as §2

Chinese sprangletop = experiment: Test Example 3: herbicidal effect by foliage application, Wagner pot (Table 18, symbol D); assay type: in vivo, chinese sprangletop (Leptochloa chinensis)
Procedure, shortened: (§3)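 Plants were sown in alluvial soil held under 0.1–0.5 cm standing water and grown 14 days in a greenhouse at 25–30 °C. An emulsifiable formulation, water-diluted to the set dose, was then sprayed onto the foliage, and effects were scored three weeks later using previously defined criteria.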

oval-leafed pondweed [6] = experiment: Test Example 2: herbicidal activity, application during weed generation under submerged conditions (Table 17, symbol C); assay type: in vivo, oval-leafed pondweed (Monochoria vaginalis); settings: for herbicidal effect rating, C: oval-leafed pondweed: AAH 320 g/ha, application during weed generation, submerged conditions
Procedure, shortened: as §2

rice flat sedge = experiment: Test Example 3: herbicidal effect by foliage application, Wagner pot (Table 18, symbol E); assay type: in vivo, rice flat sedge (Cyperus iria)
Procedure, shortened: as §3

barnyard grass [7] = experiment: Test Example 3: herbicidal effect by foliage application, Wagner pot (Table 18, symbol H); assay type: in vivo, barnyard grass (Echinochloa crus-galli)
Procedure, shortened: as §3

Italian ryegrass = experiment: Test Example 5: herbicidal effect by foliage application, plastic box (Table 20, symbol K); assay type: in vivo, Italian ryegrass (Lolium multiflorum); settings: foliage application, 320 g/ha, three weeks after application
Procedure, shortened: (§4)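 Foliar spray test: emulsion formulation diluted in water to a set application rate, sprayed onto 14-day-old plants raised in diluvial soil at 25° C to 30° C under glass. Both herbicidal effect and crop effect rated visually three weeks later.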

windgrass = experiment: Test Example 5: herbicidal effect by foliage application, plastic box (Table 20, symbol L); assay type: in vivo, windgrass (Apera spica-venti); settings: foliage application, 320 g/ha, three weeks after application
Procedure, shortened: as §4

blackgrass = experiment: Test Example 5: herbicidal effect by foliage application, plastic box (Table 20, symbol J); assay type: in vivo, blackgrass (Alopecurus myosuroides); settings: foliage application, 320 g/ha, three weeks after application
Procedure, shortened: as §4

wild oat = experiment: Test Example 5: herbicidal effect by foliage application, plastic box (Table 20, symbol I); assay type: in vivo, wild oat (Avena fatua); settings: foliage application, 320 g/ha, three weeks after application
Procedure, shortened: as §4

green foxtail = experiment: Test Example 5: herbicidal effect by foliage application, plastic box (Table 20, symbol G); assay type: in vivo, green foxtail (Setaria viridis); settings: foliage application, 320 g/ha, three weeks after application
Procedure, shortened: as §4

lambsquarters = experiment: Test Example 5: herbicidal effect by foliage application, plastic box (Table 20, symbol O); assay type: in vivo, lambsquarters (Chenopodium album); settings: foliage application, 320 g/ha, three weeks after application
Procedure, shortened: as §4

southern crabgrass = experiment: Test Example 5: herbicidal effect by foliage application, plastic box (Table 20, symbol F); assay type: in vivo, southern crabgrass (Digitaria ciliaris); settings: foliage application, 320 g/ha, three weeks after application
Procedure, shortened: as §4

persian speedwell = experiment: Test Example 5: herbicidal effect by foliage application, plastic box (Table 20, symbol R); assay type: in vivo, Persian speedwell (Veronica persica); settings: foliage application, 320 g/ha, three weeks after application
Procedure, shortened: as §4

velvetleaf = experiment: Test Example 5: herbicidal effect by foliage application, plastic box (Table 20, symbol M); assay type: in vivo, velvetleaf (Abutilon theophrasti); settings: foliage application, 320 g/ha, three weeks after application
Procedure, shortened: as §4

barnyard grass [8] = experiment: Test Example 5: herbicidal effect by foliage application, plastic box (Table 20, symbol H); assay type: in vivo, barnyard grass (Echinochloa crus-galli); settings: foliage application, 320 g/ha, three weeks after application
Procedure, shortened: as §4

[9] = application during weed generation under submerged conditions, amount of applied herbicide 320 g/ha
[10] = amount of applied herbicide 320 g/ha

Row | Structure (SMILES) | Herbicidal effect on C: oval-leafed pondweed (grade 0-5) (oval-leafed pondweed [1]) | Herbicidal effect on A: late watergrass (grade 0-5) (late watergrass [2]) | herbicidal effect rating, A: late watergrass (late watergrass [3]) | Herbicidal effect on B: Japanese bulrush (grade 0-5) (Japanese bulrush [4]) | herbicidal effect rating, B: Japanese bulrush (Japanese bulrush [5]) | herbicidal effect on D (Chinese sprangletop), rating 0-5 (Chinese sprangletop; 320 g/ha) | herbicidal effect rating, C: oval-leafed pondweed (oval-leafed pondweed [6]) | herbicidal effect on E (rice flat sedge), rating 0-5 (rice flat sedge; 320 g/ha) | herbicidal effect on H (barnyard grass), rating 0-5 (barnyard grass [7]; 320 g/ha) | other results
1 | CCCC(=O)Oc1c(C)nn(C)c(=O)c1-c1c(-c2ccc(OCCOC)cc2)oc2ccc(C)cc12 [9-064] |  |  |  |  |  |  |  |  |  | Herbicidal effect, C: oval-leafed pondweed (oval-leafed pondweed [1]): 5 (Herbicidal rate of 90% or more (almost completely withered)); Herbicidal effect, A: late watergrass (late watergrass [2]): 5 (Herbicidal rate of 90% or more (almost completely withered)); herbicidal effect grade, A: late watergrass (late watergrass [3]; [9]): 4 (Herbicidal rate of 70% or more and less than 90%); Herbicidal effect, B: Japanese bulrush (Japanese bulrush [4]): 5 (Herbicidal rate of 90% or more (almost completely withered)); herbicidal effect grade, B: Japanese bulrush (Japanese bulrush [5]; [9]): 3 (Herbicidal rate of 40% or more and less than 70%); Herbicidal effect on D (Chinese sprangletop), foliage application (Chinese sprangletop; [10]): 1 (Herbicidal rate of 5% or more and less than 20%); herbicidal effect grade, C: oval-leafed pondweed (oval-leafed pondweed [6]; [9]): 4 (Herbicidal rate of 70% or more and less than 90%); Herbicidal effect on E (rice flat sedge), foliage application (rice flat sedge; [10]): 5 (Herbicidal rate of 90% or more (almost completely withered)); Herbicidal effect on H (barnyard grass), foliage application (barnyard grass [7]; [10]): 5 (Herbicidal rate of 90% or more (almost completely withered))
2 | C=C(C)CCOc1ccc(-c2sc3ccccc3c2-c2c(O)c(C)nn(C)c2=O)cc1 [1-210] | 5 (Herbicidal rate of 90% or more (almost completely withered)) | 5 (Herbicidal rate of 90% or more (almost completely withered)) | 3 (Herbicidal rate of 40% or more and less than 70%) | 5 (Herbicidal rate of 90% or more (almost completely withered)) | 3 (Herbicidal rate of 40% or more and less than 70%) | 5 (Herbicidal rate of 90% or more (almost completely withered)) | 4 (Herbicidal rate of 70% or more and less than 90%) | 4 (Herbicidal rate of 70% or more and less than 90%) | 5 (Herbicidal rate of 90% or more (almost completely withered)) | 
3 | Cc1nn(C)c(=O)c(-c2c(-c3ccc(OCCOC(C)C)cc3)sc3ccccc23)c1O [1-226] | 4 (Herbicidal rate of 70% or more and less than 90%) | 5 (Herbicidal rate of 90% or more (almost completely withered)) | 5 (Herbicidal rate of 90% or more (almost completely withered)) | 4 (Herbicidal rate of 70% or more and less than 90%) | 3 (Herbicidal rate of 40% or more and less than 70%) | 5 (Herbicidal rate of 90% or more (almost completely withered)) | 3 (Herbicidal rate of 40% or more and less than 70%) | 4 (Herbicidal rate of 70% or more and less than 90%) | 5 (Herbicidal rate of 90% or more (almost completely withered)) | 
4 | CCCC(=O)Oc1c(C)nn(C)c(=O)c1-c1c(-c2ccc(F)cc2OCC)sc2cc(C)c(C)cc12 [5-104] |  |  | 4 (Herbicidal rate of 70% or more and less than 90%) |  | 4 (Herbicidal rate of 70% or more and less than 90%) |  | 4 (Herbicidal rate of 70% or more and less than 90%) |  |  | herbicidal effect on Italian ryegrass (K) (Italian ryegrass): 4 (Herbicidal rate of 70% or more and less than 90%); herbicidal effect on windgrass (L) (windgrass): 4 (Herbicidal rate of 70% or more and less than 90%); Herbicidal effect, C: oval-leafed pondweed (oval-leafed pondweed [1]): 0 (Herbicidal rate of 5% or less (almost no effect)); herbicidal effect on blackgrass (J) (blackgrass): 4 (Herbicidal rate of 70% or more and less than 90%); herbicidal effect on wild oat (I) (wild oat): 4 (Herbicidal rate of 70% or more and less than 90%); herbicidal effect on green foxtail (G) (green foxtail): 4 (Herbicidal rate of 70% or more and less than 90%); Herbicidal effect, A: late watergrass (late watergrass [2]): 4 (Herbicidal rate of 70% or more and less than 90%); Herbicidal effect, B: Japanese bulrush (Japanese bulrush [4]): 0 (Herbicidal rate of 5% or less (almost no effect)); herbicidal effect on Chinese sprangletop (D) (Chinese sprangletop; 320 g/ha): 5 (Herbicidal rate of 90% or more (almost completely withered)); herbicidal effect on rice flat sedge (E) (rice flat sedge; 320 g/ha): 4 (Herbicidal rate of 70% or more and less than 90%); herbicidal effect on lambsquarters (O) (lambsquarters): 4 (Herbicidal rate of 70% or more and less than 90%); herbicidal effect on southern crabgrass (F) (southern crabgrass): 5 (Herbicidal rate of 90% or more (almost completely withered)); herbicidal effect on persian speedwell (R) (persian speedwell): 5 (Herbicidal rate of 90% or more (almost completely withered)); herbicidal effect on barnyard grass (H) (barnyard grass [7]; 320 g/ha): 5 (Herbicidal rate of 90% or more (almost completely withered)); herbicidal effect on velvetleaf (M) (velvetleaf): 4 (Herbicidal rate of 70% or more and less than 90%); herbicidal effect on barnyard grass (H) (barnyard grass [8]): 4 (Herbicidal rate of 70% or more and less than 90%)
5 | CSCCCOc1ccc(-c2sc3ccccc3c2-c2c(O)c(C)nn(C)c2=O)cc1 [1-222] | 4 (Herbicidal rate of 70% or more and less than 90%) | 5 (Herbicidal rate of 90% or more (almost completely withered)) | 5 (Herbicidal rate of 90% or more (almost completely withered)) | 4 (Herbicidal rate of 70% or more and less than 90%) | 3 (Herbicidal rate of 40% or more and less than 70%) | 5 (Herbicidal rate of 90% or more (almost completely withered)) | 4 (Herbicidal rate of 70% or more and less than 90%) | 4 (Herbicidal rate of 70% or more and less than 90%) | 5 (Herbicidal rate of 90% or more (almost completely withered)) | 
6 | COc1cc(OC)cc(-c2sc3ccc(F)cc3c2-c2c(O)c(C)nn(C)c2=O)c1 [2-360] | 0 (Herbicidal rate of 5% or less (almost no effect)) | 3 (Herbicidal rate of 40% or more and less than 70%) | 2 (Herbicidal rate of 20% or more and less than 40%) | 2 (Herbicidal rate of 20% or more and less than 40%) | 0 (Herbicidal rate of 5% or less (almost no effect)) |  | 0 (Herbicidal rate of 5% or less (almost no effect)) |  |  | herbicidal effect on D: Chinese sprangletop (Chinese sprangletop; [10]): 4 (Herbicidal rate of 70% or more and less than 90%); herbicidal effect on E: rice flat sedge (rice flat sedge; [10]): 3 (Herbicidal rate of 40% or more and less than 70%); herbicidal effect on H: barnyard grass (barnyard grass [7]; [10]): 5 (Herbicidal rate of 90% or more (almost completely withered))
7 | Cc1nn(C)c(=O)c(-c2c(-c3ccc(CS(C)(=O)=O)cc3)sc3ccc(F)cc23)c1O [2-334] | 0 (Herbicidal rate of 5% or less (almost no effect)) | 3 (Herbicidal rate of 40% or more and less than 70%) | 3 (Herbicidal rate of 40% or more and less than 70%) | 0 (Herbicidal rate of 5% or less (almost no effect)) | 0 (Herbicidal rate of 5% or less (almost no effect)) |  | 0 (Herbicidal rate of 5% or less (almost no effect)) |  |  | herbicidal effect on D: Chinese sprangletop (Chinese sprangletop; [10]): 4 (Herbicidal rate of 70% or more and less than 90%); herbicidal effect on E: rice flat sedge (rice flat sedge; [10]): 5 (Herbicidal rate of 90% or more (almost completely withered)); herbicidal effect on H: barnyard grass (barnyard grass [7]; [10]): 5 (Herbicidal rate of 90% or more (almost completely withered))
